Results as given in patent EP0873131B1, “PROCESSES FOR PREPARATION OF RG3 AND RG5 GINSENOSIDES” (Cheil Je Dang Co., priority 1995, dated 1997).

Tests used:
[1] = system: Human umbilical vein endothelium cells(HUVEC); assay: Cytotoxicity to HUVEC cells (MTT, 48 hours); format: cell-based; details: for cytotoxicity: compared with solvent alone (Rg3: dimethylsulfoxide; Rg5: distilled water)
Description: Human umbilical vein endothelium cells(HUVEC) cultured in M199 medium were suspended in physiological saline to a concentration of 20000 cells/180µl. The cell suspension was introduced into each well of 96-well plate in an amount of 180µl, and then 20µl of dimethylsulfoxide as a solvent or the same volume of Rg3 dissolved in dimethylsulfoxide was added thereto. The plate was incubated for 48 hours in a cell-incubator of 37°C while keeping 5% CO2. Then, 50µl of MTT(3-(4,5-dimethyl-thiazol-2'-yl)-2,5-diphenyltetrazolium bromide) dissolved in phosphate buffered solution in a concentration of 2mg/ml was added thereto and incubated again for 4 hours under the same condition as mentioned above. Thereafter, the supernatant was removed and 200µl of dimethylsulfoxide was added to measure the absorbance at 540nm. The absorbance measured was converted into cell number to determine IC50 of dimethylsulfoxide solvent and Rg3 which is the concentration to inhibit the cell growth by 50% and can be used as an index of cytotoxicity.
Human umbilical vein endothelium cells(HUVEC) cultured in M199 medium were suspended in physiological saline to a concentration of 20000 cells/180µl. The cell suspension was introduced into each well of 96-well plate in an amount of 180µl, and then 20µl of distilled water as a solvent or the same volume of Rg5 dissolved in distilled water was added thereto. The plate was incubated for 48 hours in a cell-incubator of 37°C while keeping 5% CO2. Then, 50µl of MTT(3-(4,5-dimethyl-thiazol-2'-yl)-2,5-diphenyltetrazolium bromide) dissolved in phosphate buffered solution in a concentration of 2mg/ml was added thereto and incubated again for 4 hours under the same condition as mentioned above. Thereafter, the supernatant was removed and 200µl of dimethylsulfoxide was added to measure the absorbance at 540nm.

[2] = system: aortic rings; assay: Vasodilation of phenylephrine-contracted rat thoracic aortic rings (organ chamber, isometric tension); design: species or system Sprague-Dawley(SD) rats; details: for effect to the blood vessel without endothelium / relaxation to the blood vessel with endothelium: aortic rings contracted by 10^-6M phenylephrine; for effect to the blood vessel without endothelium: endothelium removed mechanically; for relaxation to the blood vessel with endothelium: substance alone; for relaxation to the blood vessel with endothelium / vasodilation in the presence of methylene blue(MB) / vasodilation in the presence of nitro-L-arginine(NLA): with endothelium; for vasodilation in the presence of methylene blue(MB): together with 10^-6M methylene blue(MB), an inhibitor of soluble guanylate cyclase; for vasodilation in the presence of nitro-L-arginine(NLA): together with 10^-6M nitro-L-arginine(NLA), an inhibitor of nitric oxide synthase
Description: Sprague-Dawley(SD) rats weighing 300-400g were sacrificed and their thoracic aortae were removed quickly, and then placed in a Krebs-Ringer-sodium bicarbonate solution (control solution, NaCl 118.3; KCl 4.7; MgSO4 1.2; KH2PO4 1.2; CaCl2 2.5; NaHCO3 25.0; CaEDTA 0.016 and glucose 11.1mM). Blood within the aortae, adipose and connective tissues surrounding the blood vessel were removed and then the clean aortae were cut down to prepare the aortic rings having 2-3mm length. The aortic rings were suspended vertically in an organ chamber filled with 25ml of control solution (pH 7.4). In some aortic rings, the endothelium was removed mechanically by rolling the rings 7 to 8 times on a tissue towel with pincette. The bottom of aortic ring was fixed to the organ chamber and the top thereof was connected to a transducer coupler through stirrups for recording of isometric tension.
To the aortic rings showing a stable contraction induced by addition of 10^-6M phenylephrine to the organ chamber was added ginsenoside Rg3 or Rg5-dimethylsulfoxide solution alone or together with 10^-6M methylene blue(MB) or 10^-6M nitro-L-arginine(NLA) in order to observe the vasodilation thereof. The degree of contraction by 10^-6M phenylephrine was set to 100% and the degree of relaxation caused by ginsenoside Rg3 or Rg5 was represented as percent(%) with respect thereto.
Vasodilation of the processed panaxadiol saponin fraction obtained in Example 7 as mentioned above was determined according to the same experimental procedure as Test Example 1.

| Compound | cytotoxicity [1] | effect to the blood vessel without endothelium [2] | relaxation to the blood vessel with endothelium [2] | vasodilation in the presence of methylene blue(MB) [2] | vasodilation in the presence of nitro-L-arginine(NLA) [2] | IC50 (concentration to inhibit the cell growth by 50%) ([1]; dissolved in dimethylsulfoxide) [µg/mL] |
| --- | --- | --- | --- | --- | --- | --- |
| CC(C)=CC/C=C(\C)[C@H]1CC[C@]2(C)[C@@H]1[C@H](O)C[C@@H]1[C@@]3(C)CC[C@H](O[C@@H]4O[C@H](CO)[C@@H](O)[C@H](O)[C@H]4O[C@@H]4O[C@H](CO)[C@@H](O)[C@H](O)[C@H]4O)C(C)(C)[C@@H]3CC[C@]12C [ginsenoside Rg5] | no cytotoxicity | no effect | concentration-dependent relaxation | significantly inhibited | significantly inhibited | – |
| ginsenoside Rg3 | lower cytotoxicity than the solvent | no effect | concentration-dependent relaxation | significantly inhibited | significantly inhibited | 26.7 |
